Measured values published in patent US12668576B2, “Pyrazolamide derivative, preparation method therefor, and application thereof” (SHENZHEN ZHONGGE BIOLOGICAL TECHNOLOGY CO., LTD., priority 2021, dated 2026).

Molecular target: T1, EP4 receptor (Homo sapiens, UniProt P35408)
T1 construct: expressed in transfected cells; host or cells: Flp-In CHO cells (Flpin-CHO-EP4)
Assay: Antagonist activity against EP4 receptor by cAMP assay
Format: cell-based
Conditions: Flpin-CHO-EP4 cells, PGE2 stimulation, cAMP readout; starting concentration 5 μM, dilution factor 4
Method: Eu-CAMP tracer (1/50) was diluted with a lysis buffer and 10 μL was added to per well of the detection plate. Ulight-anti-CAMP (1/150) was diluted with the lysis buffer and 10 μL was added to per well of the detection plate, and incubated at room temperature for 1 h.

T1 sequence (P35408 whole entry): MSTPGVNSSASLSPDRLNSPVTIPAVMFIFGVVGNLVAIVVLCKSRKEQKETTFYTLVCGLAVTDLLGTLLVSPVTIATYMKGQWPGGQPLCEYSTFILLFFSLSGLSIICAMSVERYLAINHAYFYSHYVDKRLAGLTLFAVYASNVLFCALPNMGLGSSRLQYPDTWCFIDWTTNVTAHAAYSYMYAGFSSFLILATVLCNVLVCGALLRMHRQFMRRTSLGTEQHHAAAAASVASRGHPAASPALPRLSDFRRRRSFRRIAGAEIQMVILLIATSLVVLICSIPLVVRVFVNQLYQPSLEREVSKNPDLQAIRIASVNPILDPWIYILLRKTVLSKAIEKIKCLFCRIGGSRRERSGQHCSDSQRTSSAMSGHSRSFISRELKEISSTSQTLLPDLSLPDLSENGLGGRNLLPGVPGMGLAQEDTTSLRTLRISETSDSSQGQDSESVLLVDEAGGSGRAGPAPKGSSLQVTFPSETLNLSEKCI

Question: With `C[C@H](NC(=O)c1c(C(F)F)nn(C)c1Oc1cccc(S(F)(F)(F)(F)F)c1)c1ccc(C(=O)O)cc1` [Example 1, 4-(1-(3-(difluoromethyl)-1-methyl-5-(3-(pentafluorothio)phenoxy)-1H-pyrazole-4-carboxamido)ethyl)benzoic acid] as the compound, how does the IC50 read?
Answer: 6.59 nM
